Like-named read-outs stand apart in the source and are kept apart here.
What was measured:
[1] = target: T1, NanHGH33 (Clostridium perfringens, UniProt P10481); format: biochemical; conditions: pH 4.5
[2] = target: T2, NanJGH33 (Clostridium perfringens, UniProt A0A0H2YT71); format: biochemical; conditions: pH 4.5
[3] = target: T3, NanIGH33 (Clostridium perfringens, UniProt Q59310); format: biochemical; conditions: pH 4.5
[4] = target: T3, NanIGH33; experiment: biochemical; format: biochemical
[5] = tested on: C. perfringens CP1; format: cell-based, Clostridium perfringens; conditions: for Doubling Time: without DANA 0.762; for k (rate constant) of exponential growth: without DANA 0.909 ± 0.098
[6] = target: T1, NanHGH33; format: biochemical
[7] = target: T2, NanJGH33; format: biochemical
[8] = target: T1, NanHGH33; experiment: biochemical; format: biochemical
[9] = target: T3, NanIGH33; format: biochemical
[10] = target: T2, NanJGH33; experiment: biochemical; format: biochemical

T2 sequence (A0A0H2YT71 373-820 limits assumed): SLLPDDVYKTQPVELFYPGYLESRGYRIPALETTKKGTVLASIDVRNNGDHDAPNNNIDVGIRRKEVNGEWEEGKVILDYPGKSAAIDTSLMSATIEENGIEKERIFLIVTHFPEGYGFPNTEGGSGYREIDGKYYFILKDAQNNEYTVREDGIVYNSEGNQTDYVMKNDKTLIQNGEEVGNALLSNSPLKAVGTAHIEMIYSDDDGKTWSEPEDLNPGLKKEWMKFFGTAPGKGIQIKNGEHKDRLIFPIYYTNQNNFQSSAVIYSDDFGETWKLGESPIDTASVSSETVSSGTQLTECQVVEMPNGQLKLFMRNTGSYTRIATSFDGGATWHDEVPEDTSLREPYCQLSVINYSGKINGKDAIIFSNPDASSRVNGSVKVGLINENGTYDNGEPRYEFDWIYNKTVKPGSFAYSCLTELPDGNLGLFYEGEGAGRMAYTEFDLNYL
T3 sequence (Q59310 243-694 limits assumed): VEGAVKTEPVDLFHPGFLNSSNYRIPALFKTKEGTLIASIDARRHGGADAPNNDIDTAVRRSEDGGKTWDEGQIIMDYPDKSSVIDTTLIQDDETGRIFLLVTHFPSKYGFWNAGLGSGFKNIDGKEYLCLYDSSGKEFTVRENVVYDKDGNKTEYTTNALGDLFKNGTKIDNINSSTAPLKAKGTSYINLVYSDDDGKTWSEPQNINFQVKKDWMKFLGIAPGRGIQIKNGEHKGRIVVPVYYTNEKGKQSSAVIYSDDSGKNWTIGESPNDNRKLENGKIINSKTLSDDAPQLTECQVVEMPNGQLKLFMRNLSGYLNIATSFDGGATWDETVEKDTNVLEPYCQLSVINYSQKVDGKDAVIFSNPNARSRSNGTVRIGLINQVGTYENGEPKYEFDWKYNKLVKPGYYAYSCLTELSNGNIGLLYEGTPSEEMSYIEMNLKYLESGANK
T1 sequence (P10481 whole entry, looked up): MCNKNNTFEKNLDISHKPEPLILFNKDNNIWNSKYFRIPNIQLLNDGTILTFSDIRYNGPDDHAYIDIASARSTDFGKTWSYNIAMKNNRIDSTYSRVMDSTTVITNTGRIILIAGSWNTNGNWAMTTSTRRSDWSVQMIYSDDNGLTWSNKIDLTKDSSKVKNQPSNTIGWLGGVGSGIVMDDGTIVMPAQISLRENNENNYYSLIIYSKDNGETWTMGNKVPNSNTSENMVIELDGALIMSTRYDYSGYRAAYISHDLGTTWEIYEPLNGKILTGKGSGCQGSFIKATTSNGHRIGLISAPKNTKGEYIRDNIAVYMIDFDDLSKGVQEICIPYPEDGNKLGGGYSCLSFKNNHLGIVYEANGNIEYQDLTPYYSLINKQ

Question: What does the source list for `CC(=O)N[C@H]1[C@H]([C@H](O)[C@H](O)CO)O[C@@](O[C@H]2[C@@H](O)[C@@H](CO)O[C@@H](O[C@H]3[C@H](O)[C@@H](O)C(O)O[C@@H]3CO)[C@@H]2O)(C(=O)O)C[C@@H]1O` (stereo partly drawn) [3′-SL, 3′-sialyllactose]?
Answer: hydrolysis of substrate in competition assay (in words) [1]: hydrolyzed; hydrolysis of substrate in competition assay (in words) [2]: processed both substrates very rapidly; hydrolysis of substrate in competition assay (in words) [3]: roughly equal rates

Question: `CC(=O)N[C@H]1[C@H]([C@H](O)[C@H](O)CO)O[C@@](OC[C@H]2O[C@@H](O[C@H]3[C@H](O)[C@@H](O)[C@H](O)O[C@@H]3CO)[C@H](O)[C@@H](O)[C@H]2O)(C(=O)O)C[C@@H]1O` [6′-SL, 6′-sialyllactose] was tested. Which “hydrolysis of substrate in competition assay (in words)” value (from here on “hydrolysis of substrate”) [1] did it give?
Answer: Its value is “did not show any significant capacity to hydrolyze”.

Question: And the “hydrolysis of substrate” value [2]?
Answer: The value was “processed both substrates very rapidly”.

Question: And the “hydrolysis of substrate” value [3]?
Answer: The value was “roughly equal rates”.

Question: For `CC(=O)N[C@H]1[C@H]([C@H](O)[C@H](O)CO)OC(C(=O)O)=C[C@@H]1O` [DANA, N-acetyl-2,3-dehydro-2-deoxyneuraminic acid], which Ki ([4]; pH 6.5, read-out: Ki) is on record?
Answer: Its Ki is 3.1 ± 0.5 µM.

Question: What about the “effect on growth of C. perfringens in the presence of 3′SL” value ([5]; 0.5% 3′SL as substrate, 1 mM DANA required for a clear effect) of the same molecule?
Answer: Its value is “reduce the growth”.

Question: What about the “Doubling Time” value ([5]; 3'SL + 0.01 mM DANA) of the same molecule?
Answer: The value was 0.571 h.

Question: What about the “k (rate constant) of exponential growth” value ([5]; 3'SL + 0.01 mM DANA) of the same molecule?
Answer: Its value is 1.214 ± 0.085.

Question: What about the “Doubling Time” value ([5]; 3'SL + 0.1 mM DANA) of the same molecule?
Answer: The value was 0.576 h.

Question: What about the “k (rate constant) of exponential growth” value ([5]; 3'SL + 0.1 mM DANA) of the same molecule?
Answer: The value was 1.202 ± 0.066.

Question: What about the “Doubling Time” value ([5]; 3'SL + 1 mM DANA) of the same molecule?
Answer: Its value is 1.725 h.

Question: And the “k (rate constant) of exponential growth” value ([5]; 3'SL + 1 mM DANA)?
Answer: Its value is 0.402 ± 0.019.

Question: What about the “effect on C. perfringens consumption of 3′-SL” value ([5]; 24 h culture supernatants, HPAEC-PAD quantification) of the same molecule?
Answer: Its value is “protect against C. perfringens consumption of 3′-SL”.

Question: And the “reduction of growth of C. perfringens with glucose as the sole carbohydrate source” value ([5]; glucose as sole carbohydrate source, data not shown)?
Answer: The value was “not”.

Question: And the “lactose released from 3′- and 6′-SL in the presence of inhibitor” value (“lactose released … of inhibitor” below) [6]?
Answer: Its value is “reduced the amount of lactose released”.

Question: What about the “lactose released … of inhibitor” value [7] of the same molecule?
Answer: Its value is “reduced the amount of lactose released”.

Question: And the Ki ([8]; pH 7, read-out: Ki)?
Answer: Its Ki is 33.9 ± 4.4 µM.

Question: And the “lactose released … of inhibitor” value [9]?
Answer: Its value is “reduced the amount of lactose released”.

Question: And the Ki ([10]; pH 6.8, read-out: Ki)?
Answer: The Ki was 3.2 ± 0.3 µM.

Question: Which Ki [4] does the source give for `CCOC(=O)C1=C[C@@H](OC(CC)CC)[C@H](NC(C)=O)[C@@H](N)C1` [Oseltamivir, (3R,4R,5S)-4-acetamido-5-amino-3-(1-ethylpropoxy)-1-cyclohexene-1-carboxylic acid ethyl ester] here?
Answer: The Ki was over 100 µM.

Question: And the “inhibition of NanIGH33 (in words)” value [4]?
Answer: The value was “did not display any detectable inhibition”.

Question: What about the Ki [8] of the same molecule?
Answer: Its Ki is over 100 µM.

Question: And the “inhibition of NanHGH33 (in words)” value [8]?
Answer: The value was “did not display any detectable inhibition”.

Question: And the Ki [10]?
Answer: Its Ki is over 100 µM.

Question: And the “inhibition of NanJGH33 (in words)” value [10]?
Answer: Its value is “did not display any detectable inhibition”.

Question: How did the Ki [4] turn out when `CC(=O)N[C@H]1NC[C@H](C(=O)O)[C@H](O)[C@@H]1O` [Siastatin B, (3S, 4S, 5R, 6R)-6-(acetylamino)-4,5-dihydroxy-3-piperidinecarboxylic acid] was run?
Answer: Its Ki is 10.7 ± 2 µM.

Question: And the Ki [8]?
Answer: The Ki was 125 ± 16.2 µM.

Question: What about the Ki [10] of the same molecule?
Answer: The Ki was 13.3 ± 1.6 µM.

Question: What does the source list for `CC(=O)N[C@H]1[C@H]([C@H](O)[C@H](O)CO)O[C@@](Oc2c[nH]c3ccc(Br)c(Cl)c23)(C(=O)O)C[C@@H]1O` [X-Neu5Ac, 5-bromo-4-chloro-3-indolyl α-D-N-acetylneuraminic acid]?
Answer: Km ([4]; pH 6.5): 123 ± 25.4 µM; Vmax ([4]; pH 6.5): 0.09 ± 0.01 µM/s; kcat ([4]; pH 6.5): 9.2 ± 0.6 s⁻¹; Km ([8]; pH 7): 280 ± 62.7 µM; kcat ([8]; pH 7): 13.3 ± 1.2 s⁻¹; kcat/Km of NanJGH33 relative to NanHGH33 [10]: ~3.6 fold; kcat/Km of NanJGH33 relative to NanIGH33 [10]: approximately 2 fold; Km ([10]; pH 6.8): 87 ± 10.7 µM; kcat ([10]; pH 6.8): 15.3 ± 0.6 s⁻¹

Question: For `CC(=O)N[C@H]1[C@H]([C@H](O)[C@H](O)CO)OC(C(=O)O)=C[C@@H]1N=C(N)N` [Zanamivir, 4-guanidino-2,4-dideoxy-2,3-dehydro-N-acetylneuraminic acid], which Ki [4] is on record?
Answer: Its Ki is over 100 µM.

Question: And the “inhibition of NanIGH33 (in words)” value [4]?
Answer: The value was “did not display any detectable inhibition”.

Question: What about the Ki [8] of the same molecule?
Answer: Its Ki is over 100 µM.

Question: And the “inhibition of NanHGH33 (in words)” value [8]?
Answer: The value was “did not display any detectable inhibition”.

Question: And the Ki [10]?
Answer: Its Ki is over 100 µM.

Question: And the “inhibition of NanJGH33 (in words)” value [10]?
Answer: The value was “did not display any detectable inhibition”.
